Test results reported in US11311609B2, “Regulating chimeric antigen receptors” (DANA-FARBER CANCER INSTITUTE, INC., priority 2017, dated 2022).

Molecular target: T1, FKBP* (Homo sapiens, UniProt P62942, F37V)
T1 construct: HA; expressed in transfected cells; host or cells: 293FT cells (CRBN-WT or CRBN-/-)
Experiment: Immunoblot of FKBP* degradation in 293FT cells (CRBN-WT or CRBN-/-)
Assay type: cell-based
Settings: 4 hours
Procedure: FIG. 6 is an immunoblot of cells treated with bi-functional molecules described in the present invention. As described in Example 3, 293FT cells (CRBN-WT or CRBN−/−) expressing either HA-tagged FKBP12WT or FKBP* (also referred to as dFKBP12* herein) were treated with indicated concentrations of dFKBP7 for 4 hours.
FIG. 8 is an immunoblot of cells treated with heterobifunctional compounds described in the present invention. Isogenic 293FT cells (CRBN-WT or CRBN−/−) expressing either FKBP12WT or FKBP* were treated with 100 nM of either dFKBP7 or dFKBP13 for 4 hours (Example 5).
FIG. 9 is an immunoblot of cells treated with heterobifunctional compounds described in the present invention. Isogenic 293FT cells (CRBN-WT or CRBN−/−) expressing HA-tagged FKBP* were treated with the indicated dose of dFKBP13 for 4 hours (Example 6).
FIG. 11 is an immunoblot of cells treated with heterobifunctional compounds described in the present invention. 293FT cells (CRBN-WT) expressing FKBP* were pretreated with 1 uM Carfilzomib (proteasome inhibitor), 0.5 uM MLN4924 (neddylation inhibitor), and 10 uM Lenalidomide (CRBN binding ligand) for two hours prior to a 4 hour treatment with dFKBP13 (Example 8). Degradation of HA-tagged FKBP* by dFKBP13 was rescued by the proteasome inhibitor Carfilzomib, establishing a requirement for proteasome function.
The dTAG is predicated on the selectivity of FKBP* specific ligands over endogenous, wild type FKBP. In 293T cells expressing wild type FKBP12 or FKBP*, dFKBP7 induces targeted degradation only in FKBP* expressing cells. An immunoblot of cells treated with bi-functional molecules described in the present invention was performed. 293FT cells (CRBN-WT or CRBN−/−) expressing either HA-tagged FKBP12WT or FKBP* were treated with indicated concentrations of dFKBP7 for 4 hours.
In 293T cells expressing wild type FKBP12 or FKBP*, treatment with dFKBP7 and dFKBP13 induces targeted degradation only in FKBP* expressing cells. Isogenic 293FT cells (CRBN-WT or CRBN−/−) were engineered to express either FKBP12WT or FKBP*. Cells were treated with 100 nM of either dFKBP7 or dFKBP13 for 4 hours before lysates were prepared for western immunoblot analysis.
In an effort to define the optimal concentration of dFKB13 heterobifunctional compounds to induce degradation of FKBP*, degradation was measured upon treatment with increasing concentrations of dFKBP13. Isogenic 293FT cells (CRBN-WT or CRBN−/−) were engineered to expressed HA-tagged FKBP*. Cells were treated with the indicated dose of dFKBP13 for 4 hours before lysates were prepared for western immunoblot analysis.
293FT cells (CRBN-WT) were engineered to express FKBP*. Cells were pretreated with 1 uM Carfilzomib (proteasome inhibitor), 0.5 uM MLN4924 (neddylation inhibitor), and 10 uM Lenalidomide (CRBN binding ligand) for two hours prior to a 4-hour treatment with dFKBP13. Lysates were prepared and western immunoblot analysis performed. Degradation of HA-tagged FKBP* by dFKBP13 was rescued by the proteasome inhibitor Carfilzomib, establishing a requirement for proteasome function.

T1 sequence (P62942 whole entry F37V): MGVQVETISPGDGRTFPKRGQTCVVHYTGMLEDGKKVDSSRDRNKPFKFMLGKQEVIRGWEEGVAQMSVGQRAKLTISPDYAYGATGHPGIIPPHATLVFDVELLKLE

## CC[C@H](C(=O)N1CCCC[C@H]1C(=O)O[C@H](CCc1ccc(OC)c(OC)c1)c1cccc(OCC(=O)NCCCOCCOCCOCCCNC(=O)COc2cccc3c2C(=O)N(C2CCC(=O)NC2=O)C3=O)c1)c1cc(OC)c(OC)c(OC)c1 (some centres unmarked) [dFKBP7]
293FT cells CRBN-WT or CRBN-/-, indicated concentrations
  Degradation of HA-tagged FKBP* (immunoblot): CRBN-dependent degradation of FKBP*
Isogenic 293FT cells CRBN-WT or CRBN-/-, 100 nM
  Degradation of FKBP* (immunoblot): CRBN-dependent degradation of FKBP*
